Source: patent US20110045101A1, “FUNGICIDAL SUBSTITUTED AZOLES” (E.I. Du Pont De Nemours and Company, priority 2009, published 2011)
Marks after values point to notes of the source that are not given here.

Assays:
Type in all cases: in vivo
Conditions in all cases: 100 = 100% disease control
Botrytis cinerea = assay: Test C: tomato Botrytis on tomato seedlings, sprayed the day before inoculation, visual disease rating
How it was run: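 Compounds were dissolved in acetone (3% of final volume), then suspended in 50/50 acetone/purified water containing 250 ppm polyhydric alcohol ester surfactant. Suspensions were sprayed to run-off on tomato seedlings at 200 ppm, equivalent to 500 g/ha, or at 40 ppm where marked.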

[1] = tested on: Puccinia recondita f. sp. tritici; assay: Test H: wheat leaf rust, test suspension sprayed after inoculation of wheat seedlings, visual disease rating
How it was run: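 Wheat seedlings inoculated with P. recondita spores, held 24 h saturated at 20 °C, then 2 days in growth chamber at 20 °C; compound suspension (acetone/water with Trem 014) sprayed to run-off afterwards. Rated visually; 200 ppm (≈500 g/ha) unless marked *, which denotes 40 ppm.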

Alternaria solani = assay: Test D: tomato early blight, sprayed the day before inoculation, visual disease rating
How it was run: (§1)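 Compounds were dissolved in acetone (3% of final volume), then suspended in 50/50 acetone/purified water with 250 ppm Trem® 014 surfactant. Suspensions at 200 ppm (some at 40 ppm) were sprayed to run-off, 200 ppm being equivalent to 500 g/ha.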

[2] = tested on: Puccinia recondita f. sp. tritici; assay: Test I: wheat leaf rust on wheat seedlings, sprayed the day before inoculation, visual disease rating
How it was run: as §1

Septoria tritici = assay: Test G: wheat leaf blotch on wheat seedlings, sprayed the day before inoculation, visual disease rating
How it was run: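 Spray to run-off, 200 ppm (≈500 g/ha; starred = 40 ppm), acetone/water 50/50 + 250 ppm Trem® 014. Spore inoculation +1 d. 24° C saturated 48 h → 20° C 19 d. Visual rating.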

[3] = tested on: Erysiphe graminis f. sp. tritici; assay: Test J: wheat powdery mildew on wheat seedlings, sprayed the day before inoculation, visual disease rating
How it was run: as §1

Septoria nodorum = assay: Test F: wheat glume blotch on wheat seedlings, sprayed the day before inoculation, visual disease rating
How it was run: as §1

[4] = 200 ppm, 0 = no control relative to controls

| SMILES | Test C disease control rating (Botrytis cinerea; [4]) [%] | Test H disease control rating [1, 4] [%] | Test D disease control rating (Alternaria solani; [4]) [%] | Test I disease control rating [2, 4] [%] | Test G disease control rating (Septoria tritici; [4]) [%] | Test J disease control rating [3, 4] [%] | Test F disease control rating (Septoria nodorum; [4]) [%] | Test C disease control rating (Botrytis cinerea; 40 ppm (marked *)) | Test H disease control rating ([1]; 40 ppm (marked *)) | Test D disease control rating (Alternaria solani; 40 ppm (marked *)) | Test I disease control rating ([2]; 40 ppm (marked *)) | Test G disease control rating (Septoria tritici; 40 ppm (marked *)) | Test J disease control rating ([3]; 40 ppm (marked *)) | Test F disease control rating (Septoria nodorum; 40 ppm (marked *)) |
| --- | --- | --- | --- | --- | --- | --- | --- | --- | --- | --- | --- | --- | --- | --- |
| COc1cc(F)c(-c2c(Cl)nc(C)n2-c2cccc(OC(F)(F)F)c2)c(F)c1 [compound 589] | 100 | 97 | 99 | 100 | 98 | 100 | 98 |  |  |  |  |  |  |  |
| COc1ccc(F)c(-c2c(Cl)nc(C)n2-c2ccc(C)c(F)c2)c1F [compound 590] |  |  |  |  |  |  |  | 100* % | 7* % | 100* % | 100* % | 96* % | 100* % | 94* % |
| Fc1cccc(F)c1-c1c(Cl)nc(Cl)n1-c1ccccc1 [compound 591] | 100 | 96 | 100 | 98 | 97 | 98 | 0 |  |  |  |  |  |  |  |
| Fc1cccc(F)c1-c1c(Cl)nc(Cl)n1-c1ccc(Cl)nc1 [compound 592] | 100 | 100 | 100 | 100 | 96 | 100 | 100 |  |  |  |  |  |  |  |
| Fc1cc(-n2c(Cl)nc(Cl)c2-c2c(F)cncc2F)ccc1Cl [compound 593] | 100 | 99 | 100 | 100 | 96 | 100 | 99 |  |  |  |  |  |  |  |
| Fc1cc(-n2cnc(Cl)c2-c2c(F)cncc2F)ccc1Cl [compound 594] | 100 | 78 | 99 | 99 | 94 | 100 | 0 |  |  |  |  |  |  |  |
| COc1cc(F)c(-n2nnc(C)c2-c2ccc(Cl)cc2)c(F)c1 [compound 595] | 100 | 22 | 80 | 74 | 96 | 98 | 0 |  |  |  |  |  |  |  |
| COc1ccc(F)c(-c2c(Cl)nc(Br)n2-c2ccc(C#N)cc2)c1F [compound 596] | 94 | 0 | 73 | 74 | 98 | 97 | 0 |  |  |  |  |  |  |  |
| Fc1cc(F)c(-c2c(Cl)nc(Cl)n2-c2ccc(OC(F)F)cc2)c(F)c1 [compound 598] | 100 | 99 | 100 | 100 | 99 | 100 | 100 |  |  |  |  |  |  |  |
| Fc1cc(F)c(-c2c(Cl)nc(Cl)n2-c2cccc(OC(F)(F)F)c2)c(F)c1 [compound 599] | 26 | 0 | 0 | 0 | 9 | 0 | 0 |  |  |  |  |  |  |  |
| Fc1cc(F)c(-c2c(Cl)nc(Cl)n2-c2ccc(OC(F)(F)F)cc2)c(F)c1 [compound 600] | 86 | 7 | 100 | 0 | 94 | 99 | 0 |  |  |  |  |  |  |  |
| COc1cc(F)c(-c2c(Cl)nc(C)n2-c2ccc(C)c(Cl)c2)c(F)c1 [compound 601] |  |  |  |  |  |  |  | 99* % | 7* % | 98* % | 97* % | 99* % | 97* % | 87* % |
| Cc1nc(Br)c(-c2c(F)cccc2F)n1-c1ccc2c(c1)OCCO2 [compound 602] |  |  |  |  |  |  |  | 99* % | 0* % | 91* % | 98* % | 99* % | 81* % | 0* % |
| Fc1cc(F)c(-c2c(Cl)nc(Br)n2-c2cccc(OC(F)F)c2)c(F)c1 [compound 603] | 99 | 98 | 100 | 100 | 99 | 100 | 99 |  |  |  |  |  |  |  |
| Fc1cc(F)c(-c2c(Cl)nc(Br)n2-c2ccc(OC(F)F)cc2)c(F)c1 [compound 604] | 99 | 97 | 100 | 100 | 99 | 100 | 100 |  |  |  |  |  |  |  |
| Fc1cc(F)c(-c2c(Cl)nc(Br)n2-c2cccc(OC(F)(F)F)c2)c(F)c1 [compound 605] | 19 | 0 | 0 | 0 | 73 | 94 | 0 |  |  |  |  |  |  |  |
| Fc1cc(F)c(-c2c(Cl)nc(Br)n2-c2ccc(OC(F)(F)F)cc2)c(F)c1 [compound 606] | 99 | 0 | 100 | 28 | 99 | 100 | 0 |  |  |  |  |  |  |  |
| COc1cc(F)c(-c2c(Cl)nc(Br)n2-c2ccc(C)c(C#N)c2)c(F)c1 [compound 607] |  |  |  |  |  |  |  | 100* % | 7* % | 96* % | 86* % | 99* % | 82* % | 31* % |
| Cc1nc(Cl)c(-c2c(F)cccc2F)n1-c1ccc2c(c1)OC(F)(F)O2 [compound 608] |  |  |  |  |  |  |  | 17* % | 7* % | 0* % | 41* % | 4* % | 0* % | 0* % |
| Cc1nc(Cl)c(-c2c(F)cc(F)cc2F)n1-c1cccc(OC(F)F)c1 [compound 609] | 99 | 100 | 100 | 100 | 99 | 100 | 100 |  |  |  |  |  |  |  |
